Test results taken from patent US6063812A, “Fumagillol derivatives and processes for preparing the same” (Chong Kun Dang Corporation, priority 1998, dated 2000).
In brackets after ≈: the same amount, converted by molar mass. Like-named read-outs stand apart in the source and are kept apart here.

Columns and labels:
[1] = test system: EL-4 (Lymphoma, murine) cells; test: Inhibiting activity on angiogenesis in vitro: EL-4 cells, MTT method; assay type: cell-based; conditions: Mus musculus, EL4, 72 h, read-out: IC50, EL-4
Description: (§1) The compound sample dissolved in DMSO was diluted to ten times by using MEM culture medium (in case of CPAE cells) without adding FBS (Fetal Bovine Serum), and RPMI 1640 culture (in case of EL-4 and P388D1 cells), and 20 μl of the solution was poured to each well of 96 well plate in triplicate for every concentration gradient. Then, each cell suspension was prepared and poured to examine the inhibiting activity on angiogenesis.
In case of EL-4 (Lymphoma, murine) and P388D1 (leukemia, mouse) cells, a cell suspension having 1×10^4 cells/ml was prepared with RPMI1640 (+10% FBS) culture medium, and after pouring the suspension (180 μl) to each well of 96 well plate, they were cultured in a CO2 incubator (5% CO2, humidified) for 3 days.

[2] = test system: CPAE (Calf Pulmonary Artery Endothelial) cells; test: Inhibiting activity on angiogenesis in vitro: CPAE cells, SRB method; assay type: cell-based; conditions: Bos taurus, Endothelial cell, 96 h, 4 days, 10% FBS + ECGS
Description: as §1
In case of CPAE (Calf Pulmonary Artery Endothelial) cells (used after 2-3 subcultures), a cell suspension having 7×10^3 cells/ml was prepared with MEM (+10% FBS+50 μg/ml ECGS) medium, and after pouring the suspension (180 μl) to each well of 96 well plate, they were cultured in a CO2 incubator (5% CO2, humidified) for 4 days.

[3] = EL-4 cells, 3 days, MTT method, 10% FBS

Row | SMILES | IC50 [1, 3] | IC50 [2] | IC50 [1]
1 | COc1ccc(/C=C/C(=O)O[C@@H]2CC[C@]3(CO3)[C@@H]([C@@]3(C)O[C@@H]3CC=C(C)C)[C@@H]2OC)cc1 [Example 2, O-(4-methoxycinnamoyl)fumagillol] | 0.0022 ng/mL (≈ 0.00497 nM) | 0.0017 ng/mL | –
2 | COc1cc(/C=C/C(=O)O[C@@H]2CC[C@]3(CO3)[C@@H]([C@@]3(C)O[C@@H]3CC=C(C)C)[C@@H]2OC)cc(OC)c1OC [Example 3, O-(3,4,5-trimethoxycinnamoyl)fumagillol] | – | – | 1.1e-05 ng/mL (≈ 2.19e-05 nM)
3 | CO[C@@H]1[C@H](OC(=O)/C=C/c2ccc(Cl)cc2)CC[C@]2(CO2)[C@H]1[C@@]1(C)O[C@@H]1CC=C(C)C [Example 4, O-(chlorocinnamoyl)fumagillol] | 0.84 ng/mL (≈ 1.88 nM) | 0.99 ng/mL | –
4 | COc1cc(/C=C/C(=O)O[C@@H]2CC[C@](O)(CCl)[C@@H]([C@@]3(C)O[C@@H]3CC=C(C)C)[C@@H]2OC)cc(OC)c1OC [Example 5, 4-(3,4,5-trimethoxycinnamoyl)oxy-2-(1,2-epoxy-1,5-dimethyl-4-hexenyl)-3-methoxy-1-chloromethyl-1-cyclohexanol] | 1.1e-05 ng/mL (≈ 2.04e-05 nM) | 4.8e-05 ng/mL | –
5 | CO[C@@H]1[C@H](OC(=O)/C=C/c2ccc([N+](=O)[O-])cc2)CC[C@]2(CO2)[C@H]1[C@@]1(C)O[C@@H]1CC=C(C)C [Example 7, O-(4-nitrocinnamoyl)fumagillol] | 0.054 ng/mL (≈ 0.118 nM) | 0.012 ng/mL | –
6 | CO[C@@H]1[C@H](OC(=O)/C=C/c2ccc(OC(C)=O)cc2)CC[C@]2(CO2)[C@H]1[C@@]1(C)O[C@@H]1CC=C(C)C [Example 9, O-(4-acetoxycinnamoyl)fumagillol] | 0.0066 ng/mL (≈ 0.014 nM) | 0.0044 ng/mL | –
7 | COc1cc(/C=C/C(=O)O[C@@H]2CC[C@]3(CO3)[C@@H]([C@@]3(C)O[C@@H]3CC=C(C)C)[C@@H]2OC)cc(OC)c1OC(C)=O [Example 11, O-(4-acetoxy-3,5-dimethoxycinnamoyl)fumagillol] | 0.00032 ng/mL (≈ 0.000603 nM) | 0.00021 ng/mL | –
8 | COc1cc(/C=C/C(=O)O[C@@H]2CC[C@]3(CO3)[C@@H]([C@@]3(C)O[C@@H]3CC=C(C)C)[C@@H]2OC)cc(OC)c1O [Example 12, O-(3,5-dimethoxy-4-hydroxycinnamoyl)fumagillol] | 0.00069 ng/mL (≈ 0.00141 nM) | 0.00073 ng/mL | –
9 | COc1ccc(/C=C/C(=O)O[C@@H]2CC[C@](O)(CCl)[C@@H]([C@@]3(C)O[C@@H]3CC=C(C)C)[C@@H]2OC)cc1 [Example 13, 4-(4-methoxycinnamoyl)oxy-2-(1,2-epoxy-1,5-dimethyl-4-hexenyl)-3-methoxy-1-chloromethyl-1-cyclohexanol] | 0.0016 ng/mL (≈ 0.00334 nM) | 0.0011 ng/mL | –
10 | CO[C@@H]1[C@H](OC(=O)/C=C/c2ccc(N(C)C)cc2)CC[C@]2(CO2)[C@H]1[C@@]1(C)O[C@@H]1CC=C(C)C [Example 14, O-(4-dimethylaminocinnamoyl)fumagillol] | 0.00049 ng/mL (≈ 0.00108 nM) | 0.00063 ng/mL | –
11 | CO[C@@H]1[C@H](OC(=O)/C=C/c2ccc(N)cc2)CC[C@]2(CO2)[C@H]1[C@@]1(C)O[C@@H]1CC=C(C)C [Example 15, O-(4-aminocinnamoyl)fumagillol] | 0.0043 ng/mL (≈ 0.0101 nM) | 0.0025 ng/mL | –
12 | COc1cc(/C=C/CO[C@@H]2CC[C@]3(CO3)[C@@H]([C@@]3(C)O[C@@H]3CC=C(C)C)[C@@H]2OC)cc(OC)c1OC [Example 17, O-(3,4,5-trimethoxycinnamyl)fumagillol] | 0.0015 ng/mL (≈ 0.00307 nM) | 0.0012 ng/mL | –
13 | CO[C@@H]1[C@H](OC(=O)/C=C/c2ccc(OCCN(C)C)cc2)CC[C@]2(CO2)[C@H]1[C@@]1(C)O[C@@H]1CC=C(C)C [Example 18, O-(4-dimethylaminoethoxycinnamoyl)fumagillol] | 0.00041 ng/mL (≈ 0.000821 nM) | 0.00052 ng/mL | –
14 | COc1ccc(/C=C/C(=O)O[C@@H]2CC[C@]3(CO3)[C@@H]([C@@]3(C)O[C@@H]3CC=C(C)C)[C@@H]2OC)cc1CN(C)C [Example 19, O-(3-dimethylaminomethyl-4-methoxycinnamoyl)fumagillol] | 0.00057 ng/mL (≈ 0.00114 nM) | 0.00032 ng/mL | –
15 | CO[C@@H]1[C@H](OC(=O)/C=C/c2ccc3c(c2)OCO3)CC[C@]2(CO2)[C@H]1[C@@]1(C)O[C@@H]1CC=C(C)C [Example 20, O-(3,4-methylenedioxycinnamoyl)fumagillol] | 0.00022 ng/mL (≈ 0.000482 nM) | 0.00012 ng/mL | –
16 | COc1cc(N)c(/C=C/C(=O)O[C@@H]2CC[C@]3(CO3)[C@@H]([C@@]3(C)O[C@@H]3CC=C(C)C)[C@@H]2OC)cc1OC [Example 21, O-(3,4-dimethoxy-6-aminocinnamoyl)fumagillol] | 0.00082 ng/mL (≈ 0.00168 nM) | 0.00083 ng/mL | –
17 | CO[C@@H]1[C@H](OC(=O)/C=C/c2ccc(N(C)C)cc2)CC[C@](O)(CCl)[C@H]1[C@@]1(C)O[C@@H]1CC=C(C)C [Example 25, 4-(4-dimethylaminocinnamoyl)oxy-2-(1,2-epoxy-1,5-dimethyl-4-hexenyl)-3-methoxy-1-chloromethyl-1-cyclohexanol] | 0.00041 ng/mL (≈ 0.000833 nM) | 0.00033 ng/mL | –
18 | CO[C@@H]1[C@H](OC(=O)/C=C/C=C/C=C/C=C/C(=O)O)CC[C@]2(CO2)[C@H]1[C@@]1(C)O[C@@H]1CC=C(C)C [Fumagillin, fumagillin, reference compound] | – | – | 1.6 ng/mL (≈ 3.49 nM)
